In PMC6691587, “New CXCR1/CXCR2 inhibitors represent an effective treatment for kidney or head and neck cancers sensitive or refractory to reference treatments” (Theranostics, 2019):
Where “and” joins values, the source holds several entries; their conditions need not be identical. Identical values can stand only once.

Assay: Pharmacokinetic parameters after oral administration
Type: in vivo
Conditions: plasma, CD-1 mice, oral gavage 50 mg/kg
Procedure: The in vivo pharmacokinetic parameters were determined in CD-1 mice at a dose of 50 mg/kg after oral administration. The plasma samples (400 µL) were mixed with acetonitrile (1 mL) to precipitate the proteins and extract the compound. After mixing and sonication, proteins were precipitated by centrifugation and the supernatants were analyzed by UPLCMS/MS.

half-life (CD-1, mouse, po, 50 mg/kg, formulated at 7.6 mg/mL, read-out: half-life (t ½)): 3.17 h
AUC (mouse): ~1420 ng·h/mL
Cmax (mouse): 900 ng/mL and 2.6 µM
Tmax (mouse): 0.5 h
AUC(0-t) (mouse, read-out: AUC last PO (converted)): 1420 ng·h/mL
Compound: O=C(Nc1cccc(Cl)c1)Nc1nc2ccc([N+](=O)[O-])cc2s1 [C29]
